# Results taken from patent US6624182B1, “Hydroxyphenylvinylthiazoles” (Ciba Specialty Chemicals Corporation, priority 1999, dated 2003).
# Experiments:
# Assay in all cases: Determination of the minimum inhibitory concentration (MIC value) in microtitre plates
# [1] = tested on: S. aureus; type: cell-based; settings: Staphylococcus aureus; optical density at 620 nm, 48 hours at 37° C., MIC = ≦20% growth; tested at 100; 10 and 1 ppm (approximate values); (2), (3), (4) at 120; 60; 30; 15; 7.5; 3.75 ppm
# Summary of the method: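 DMSO-dissolved compounds were tested in 1:2 serial dilutions against bacteria in CASO bouillon, from inocula of 1−5×10^6 KBE/ml diluted 1:100. Growth was read by OD 620 nm after 48 h at 37 °C. MIC was the lowest concentration giving ≦20% growth versus the growth control, tested in duplicate.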
# [2] = tested on: P. aeruginosa; type: cell-based, Pseudomonas aeruginosa CIP A-22; settings: Pseudomonas aeruginosa; optical density at 620 nm, 48 hours at 37° C., MIC = ≦20% growth; tested at 100; 10 and 1 ppm (approximate values); (2), (3), (4) at 120; 60; 30; 15; 7.5; 3.75 ppm
# Summary of the method: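 P. aeruginosa CIP A-22 at 1−5×10^6 KBE/ml, diluted 1:100 in CASO bouillon, exposed to 1:2 serial dilutions of DMSO-dissolved compound for 48 h at 37 °C, in duplicate. Growth read by OD 620 nm; MIC is the lowest concentration giving ≤20% growth relative to growth control.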
# [3] = tested on: A. niger; type: cell-based, Aspergillus niger ATCC 6275; settings: Aspergillus niger, 120 h; optical density at 620 nm, 5 days at 28° C., MIC = ≦20% growth; tested at 100; 10 and 1 ppm (approximate values); (2), (3), (4) at 120; 60; 30; 15; 7.5; 3.75 ppm
# Summary of the method: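 A. niger ATCC 6275 spores, adjusted to 1−5×10^6 KBE/ml and diluted 1:100 in Sabouraud 2% glucose bouillon, were exposed to 2-fold dilutions of DMSO-dissolved compounds for 5 days at 28°C. Growth read as OD at 620 nm. MIC is the lowest concentration giving ≤20% growth versus growth control, tested in duplicate.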
MIC [1],MIC [2],MIC [3],SMILES
60 µg/mL,> 100 µg/mL,> 100 µg/mL,CC(C)(C)c1csc(/C=C/c2ccccc2O)n1 [Compound of formula (3)]
> 100 µg/mL,> 100 µg/mL,> 100 µg/mL,Oc1ccc(/C=C/c2nc(-c3ccc(F)cc3)cs2)cc1 [Compound of formula (2)]
> 100 µg/mL,> 100 µg/mL,> 100 µg/mL,Oc1ccc(/C=C/c2nc(-c3ccccc3)cs2)cc1 [Compound of formula (4)]
